For assay [1], the target named is T1, PRMT5 (Homo sapiens, UniProt O14744).
T1 construct: purchased Viva (custom protein)
As to the kind of experiment: PRMT5 biochemical IC50 assay with SAM as cofactor. The settings on record: PRMT5, SAM as cofactor; read-out: SAM IC50.

In assay [2] the target is T1, PRMT5. As to the kind of experiment: PRMT5 biochemical IC50 assay with no cofactor. The settings on record: PRMT5, no cofactor. From the text:
Table 1 indicates IC50 values (μM) against PRMT5 for exemplary compounds in the presence of SAM as cofactor, with no cofactor, and with MTA as cofactor, respectively (columns 4-6). […] Ki values can be calculated from the IC50 values as described in the Examples section. As detailed in the Examples section, for the assay performed in the presence of SAM, IC50=Ki×1.5 (Ki=IC50/1.5).

In assay [3] the target is T1, PRMT5. As to the kind of experiment: PRMT5 biochemical IC50 assay with MTA as cofactor. Conditions: PRMT5, MTA as cofactor; read-out: MTA IC50.
Assay [4] deals with HAP1 MTAP-intact cell line. As to the kind of experiment: SDMA in-cell western assay, HAP1 MTAP-intact. It is filed as cell-based. Conditions: Homo sapiens, HAP1, SDMA in-cell western, HAP1 MTAP-intact; read-out: MTAP HAP1 intact IC50. The method in brief:
(§1)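 Readout: in-cell western detection of SDMA. Cells: HAP1 expressing endogenous MTAP and an MTAP-null HAP1 counterpart. Output: IC50.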

Assay [5] has as its system HAP1 MTAP-deleted cell line. As to the kind of experiment: SDMA in-cell western assay, HAP1 MTAP-deleted. It is filed as cell-based. The settings on record: for IC50: Homo sapiens, HAP1, SDMA in-cell western, HAP1 MTAP-deleted; for MTAP intact/deleted ratio: IC50 ratio HAP1 MTAP-intact / HAP1 MTAP-deleted, SDMA in-cell western. The method, boiled down:
as §1

Assay [6] relates to HAP1 MTAP-deleted cell line. As to the kind of experiment: Viability assay, MTAP-deleted cell line. It is filed as cell-based. The settings on record: Homo sapiens, HAP1, viability assay, read-out: HAP1 MTAP deleted viability. From the text:
Table 1 additionally indicates IC50 values in a viability assay for the MTAP-deleted cell line (column 10), indicating the effect of treatment with compound on cell survival.

Where [7] appears, read: read-out: HAP1 MTAP deleted IC50.
Setting [8] is: read-out: HAP 1 MTAP deleted IC50.

T1 sequence (O14744 whole entry): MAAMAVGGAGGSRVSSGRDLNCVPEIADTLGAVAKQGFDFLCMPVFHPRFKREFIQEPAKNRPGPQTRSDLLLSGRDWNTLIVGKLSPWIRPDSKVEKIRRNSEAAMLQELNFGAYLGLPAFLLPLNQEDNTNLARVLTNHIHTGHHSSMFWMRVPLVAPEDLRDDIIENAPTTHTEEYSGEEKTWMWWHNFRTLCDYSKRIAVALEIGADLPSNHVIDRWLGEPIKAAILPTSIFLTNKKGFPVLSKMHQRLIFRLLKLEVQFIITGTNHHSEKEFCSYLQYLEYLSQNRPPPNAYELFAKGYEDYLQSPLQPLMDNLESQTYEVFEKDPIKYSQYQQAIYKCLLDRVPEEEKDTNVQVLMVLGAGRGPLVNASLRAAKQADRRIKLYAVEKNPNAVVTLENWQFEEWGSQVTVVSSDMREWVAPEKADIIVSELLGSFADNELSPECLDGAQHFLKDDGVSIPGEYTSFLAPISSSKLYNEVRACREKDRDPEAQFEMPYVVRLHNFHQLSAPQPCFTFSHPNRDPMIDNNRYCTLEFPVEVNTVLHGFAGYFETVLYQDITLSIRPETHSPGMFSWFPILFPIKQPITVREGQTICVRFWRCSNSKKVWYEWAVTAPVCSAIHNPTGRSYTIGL
T1 sequence (Q9BQA1 whole entry partner): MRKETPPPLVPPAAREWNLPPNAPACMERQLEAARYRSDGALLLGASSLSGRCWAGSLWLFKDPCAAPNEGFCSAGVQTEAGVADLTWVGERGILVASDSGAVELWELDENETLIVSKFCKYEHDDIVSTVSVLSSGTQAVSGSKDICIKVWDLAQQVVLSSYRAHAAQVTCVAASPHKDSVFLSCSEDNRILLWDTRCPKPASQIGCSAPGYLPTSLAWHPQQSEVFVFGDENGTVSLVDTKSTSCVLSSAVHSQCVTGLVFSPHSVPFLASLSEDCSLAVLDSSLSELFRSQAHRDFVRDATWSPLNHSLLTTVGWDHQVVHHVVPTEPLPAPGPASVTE

Take `C[C@H]1CC[C@H](c2ccn(-c3cc[nH]n3)n2)N(C(=O)C(=O)Nc2cncc(C(N)=O)c2)C1` (single isomer, unassigned) [Compound 882]: the IC50 on PRMT5 [1] is more than 500 nM; at PRMT5 [2] (read-out: No Cofactor/rel IC50), more than 500 nM; at PRMT5 [3] it was more than 500 nM; in assay [4], more than 1000 nM; in assay [5] (setting [7]) it was more than 1000 nM; in assay [6] (HAP1 MTAP-deleted), more than 10000 nM. In addition, the MTAP intact/deleted ratio result in assay [5] is reported as “C (an IC50 ratio of less than 3 fold)”.

As for `CCc1cc(NC(=O)C(=O)N2C[C@@H](C)CC[C@@H]2c2ccc(C)nc2)cnc1N` (single isomer, unassigned) [Compound 784], the IC50 at PRMT5 [1] was 50 to 500 nM; at PRMT5 [2] (read-out: No Cofactor/rel IC50), less than 50 nM; on PRMT5 [3], less than 50 nM; in assay [4], more than 1000 nM; in assay [5] (setting [7]), less than 100 nM; in assay [6] (HAP1 MTAP-deleted), less than 1000 nM. For the same molecule, the MTAP intact/deleted ratio result in assay [5] is recorded as “A (an IC50 ratio greater than or equal to 10 fold)”.

As for `CCc1cc(NC(=O)C(=O)N2C[C@H](C)CC[C@H]2c2ccn(-c3cc[nH]n3)n2)cnc1N` (single isomer, unassigned) [Compound 931], the IC50 at PRMT5 [1] is 50 to 500 nM; on PRMT5 [2] (read-out: No Cofactor/rel IC50), 50 to 500 nM; on PRMT5 [3], less than 50 nM; in assay [4], 100 to 1000 nM; in assay [5] (setting [8]), less than 100 nM; in assay [6] (MTAP-deleted cell line), less than 1000 nM. For the same molecule, the MTAP intact/deleted ratio entry in assay [5] is “A (an IC50 ratio greater than or equal to 10 fold)”.

For `COc1ncc(NC(=O)C(=O)N2C[C@@H](C)CC[C@@H]2c2ccc(N)nc2)cc1C(N)=O` (single isomer, unassigned) [Compound 460], the IC50 was 50 to 500 nM on PRMT5 [1]; less than 50 nM at PRMT5 [2] (read-out: No Cofactor/rel IC50); less than 50 nM on PRMT5 [3]; more than 1000 nM in assay [4]; less than 100 nM in assay [5] (setting [7]); less than 1000 nM in assay [6] (MTAP-deleted cell line). Besides, the MTAP intact/deleted ratio entry in assay [5] is given as “A (an IC50 ratio greater than or equal to 10 fold)”.

With `Cc1cc(NC(=O)C(=O)N2C[C@H](C)CC[C@H]2c2ccc(-c3cn[nH]c3)cc2)cnc1N` (racemic) [Compound 525, rac N-(6-amino-5-methyl-3-pyridyl)-2-[(2S,5R)-5-methyl-2-[4-(1H-pyrazol-4-yl)phenyl]-1-piperidyl]-2-oxo-acetamide], the IC50 on PRMT5 [1] was more than 500 nM; on PRMT5 [2] (read-out: No Cofactor/rel IC50), 50 to 500 nM; on PRMT5 [3], 50 to 500 nM; in assay [4], 100 to 1000 nM; in assay [5] (setting [7]) it was less than 100 nM; in assay [6] (MTAP-deleted cell line), less than 1000 nM. Moreover, the MTAP intact/deleted ratio entry in assay [5] was “A (an IC50 ratio greater than or equal to 10 fold)”.

On to `Cc1cc(NC(=O)C(=O)N2C[C@@H](C)CC[C@@H]2c2cccc3[nH]ncc23)cnc1N` (single isomer, unassigned) [Compound 790], for which the IC50 was more than 500 nM at PRMT5 [1]; more than 500 nM at PRMT5 [2] (read-out: No Cofactor/rel IC50); more than 500 nM on PRMT5 [3]; more than 1000 nM in assay [4]; 100 to 1000 nM in assay [5] (setting [7]); more than 10000 nM in assay [6] (HAP1 MTAP-deleted). Further, the MTAP intact/deleted ratio entry in assay [5] is on record as “A (an IC50 ratio greater than or equal to 10 fold)”.

On to `Cc1cc(NC(=O)C(=O)N2CCCC[C@@H]2c2ccccc2)cnc1N` (single isomer, unassigned) [Compound 51], for which the IC50 is 50 to 500 nM on PRMT5 [1]; 50 to 500 nM at PRMT5 [2] (read-out: No Cofactor/ rel IC50); less than 50 nM on PRMT5 [3]; more than 1000 nM in assay [4]; 100 to 1000 nM in assay [5] (setting [8]); more than 10000 nM in assay [6] (MTAP-deleted cell line). Also, in assay [5], the “MTAP intact/deleted ratio” value is reported as “B (an IC50 ratio greater than or equal to 3 fold but lower than 10 fold)”.

In the case of `CCc1cc(NC(=O)C(=O)N2C[C@@H](C)CC[C@@H]2c2ccc3cnccc3c2)cnc1N` (single isomer, unassigned) [Compound 929], the IC50 at PRMT5 [1] is more than 500 nM; at PRMT5 [2] (read-out: No Cofactor/rel IC50), more than 500 nM; at PRMT5 [3], more than 500 nM; in assay [4], more than 1000 nM; in assay [5] (setting [8]) it was 100 to 1000 nM; in assay [6] (MTAP-deleted cell line), 1000 to 10000 nM. The MTAP intact/deleted ratio entry in assay [5] is given as “A (an IC50 ratio greater than or equal to 10 fold)”.

The record behind these values is patent US11999727B2 (Tango Therapeutics, Inc., priority 2020, dated 2024).
